Test results published in ChEMBL document CHEMBL1201862, “PubChem BioAssay data set” (2004).
The source made the active and inactive calls.

Key:
[1] = Luminescence Cell-Based Dose Retest to Confirm Activators of 5'UTR Stem-Loop Driven Alpha-Synuclein mRNA Translation in H4 Neuroglioblastoma Cells. [Related pubchem assays (depositor defined):AID1813, AID1829]; assay type: functional
[2] = Luminescence Cell-Based Dose Confirmation HTS to Identify Inhibitors of 5'UTR Stem-Loop Driven Alpha-Synuclein mRNA Translation in H4 Neuroglioblastoma Cells. [Related pubchem assays: 1827 (Project Summary), 1813 (Primary HTS)]; assay type: functional
[3] = Luminescence Cell-Based Dose Response HTS to Identify Activators of Luciferase Translation or Activity in H4-C Neuroglioblastoma Cells. [Related pubchem assays: 1829 (Project Summary), 1814 (Primary HTS)]; assay type: functional
[4] = Luminescence Cell-Based Dose Response HTS to Identify Inhibitors of Luciferase Translation or Activity in H4-C Neuroglioblastoma Cells. [Related pubchem assays: 1813 (Primary HTS), 1827 (Project Summary)]; assay type: functional
[5] = Luminescence Cell-Based Dose Response HTS to Identify Activators of 5'UTR Stem-Loop Driven Prion Protein mRNA Translation in H4-C Neuroglioblastoma Cells. [Related pubchem assays: 1829 (Project Summary), 1814 (Primary HTS)]; assay type: functional
[6] = Luminescence Cell-Based Dose HTS Response to Identify Inhibitors of 5'UTR Stem-Loop Driven Prion Protein mRNA Translation in H4-C Neuroglioblastoma Cells. [Related pubchem assays (depositor defined):AID1814, AID1827]; assay type: functional
Ion channel NompC = Ion channel NompC (Danio rerio, UniProt Q7T1G6); assay: Dose response cell-based high-throughput screening assay for agonists of the transient receptor potential channel N1 (TRPN1). [Related pubchem assays (depositor defined):AID1424, AID1448]; assay type: functional
Nonstructural protein 1 = Nonstructural protein 1 (Influenza A virus, UniProt Q194T2); assay type: functional, Influenza A virus (A/California/07/2009(H1N1))
Mucolipin-3 = Mucolipin-3 (Homo sapiens, UniProt Q8TDD5); assay: Fluorescence counterscreen assay for […] agonists: dose response cell-based high-throughput screening assay to identify agonists of the transient receptor potential channel ML3 (TRPML3). [Related pubchem assays: 1424, 1448 ]; assay type: functional
[7] = target: T1, Ubiquitin-conjugating enzyme E2 N (Homo sapiens, UniProt P61088); assay type: functional
T1 sequence (P61088 whole entry): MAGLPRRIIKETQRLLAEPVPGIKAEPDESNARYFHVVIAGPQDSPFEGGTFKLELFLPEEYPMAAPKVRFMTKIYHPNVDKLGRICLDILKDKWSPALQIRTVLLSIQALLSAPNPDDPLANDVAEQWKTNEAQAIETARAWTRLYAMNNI

[8] = target: T1, Ubiquitin-conjugating enzyme E2 N; assay type: functional; remark: listed apart in the source
Bcl-2-related protein A1 = target: T2, Bcl-2-related protein A1 (Mus musculus, UniProt Q07440); assay type: functional;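 also: confirmatory dose–response counterscreen on Bfl-1, used to check hits from a UBC13 polyubiquitin inhibitor campaign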
T2 sequence (Q07440 whole entry): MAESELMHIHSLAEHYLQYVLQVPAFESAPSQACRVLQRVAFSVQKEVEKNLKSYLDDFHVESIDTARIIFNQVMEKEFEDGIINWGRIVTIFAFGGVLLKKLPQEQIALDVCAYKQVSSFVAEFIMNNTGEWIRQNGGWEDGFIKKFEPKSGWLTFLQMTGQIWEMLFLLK

[9] = target: Peroxisome proliferator-activated receptor gamma/Nuclear receptor coactivator 1 (Homo sapiens, UniProt P37231); assay: TR-FRET dose response biochemical High Throughput Screening assay for agonists of the steroid receptor coactivator 1 (SRC-1) recruitment by the peroxisome proliferator-activated receptor gamma (PPAR gamma): non-selective agonists. [Related pubchem assays (depositor defined):AID1300, AID1808, AID504735, AID631]; assay type: protein assay
[10] = target: Peroxisome proliferator-activated receptor gamma/Nuclear receptor coactivator 2 (Homo sapiens, UniProt P37231); assay: (§1) TR-FRET dose response biochemical High Throughput Screening assay for agonists of the steroid receptor coactivator 2 (SRC-2) recruitment by the peroxisome proliferator-activated receptor gamma (PPAR gamma): non-selective agonists. [Related pubchem assays: 1297, 1032 ]; assay type: functional
[11] = target: Peroxisome proliferator-activated receptor gamma/Nuclear receptor coactivator 3 (Homo sapiens, UniProt P37231); assay: as §1, with “3 (SRC-3)” for “2 (SRC-2)”, “1301 (Confirmation screen.), 1048 (Primary screen.)]” for “1297, 1032 ]”; assay type: functional

SMILES: Oc1ccccc1/N=N/c1ccccc1O
- EC50 [1]: 1.77 µM (inconclusive)
- EC50 [2]: 1.7 µM (active)
- EC50 [3]: 0.929 µM (inconclusive)
- EC50 [4]: 1.36 µM (active)
- EC50 [5]: 0.399 µM (inconclusive)
- EC50 [6]: 1.09 µM (active)

SMILES: CCN1C(=O)/C(=C/C=C2\N(CC)c3cc(S(=O)(=O)N(C)C)ccc3N2c2ccccc2)SC1=S
- EC50 (Ion channel NompC): 1.62 µM (active)
- IC50 (Nonstructural protein 1): 55.3 µM (active)
- EC50 (Mucolipin-3): > 29.9 µM (not active)

SMILES: CCOc1ccc(-c2csc(NC(=O)c3cccc(N4C(=O)CCC4=O)c3)n2)cc1
- IC50 [7]: 15.7 µM (active)
- IC50 [8]: > 20 µM (inactive)
- IC50 (Bcl-2-related protein A1): > 20 µM (inactive)

SMILES: COCCNc1nc2ccccc2nc1NS(=O)(=O)c1ccc(C)cc1C
- EC50 [9]: > 79.4 µM (inactive)
- EC50 [10]: > 79.4 µM (not active)
- EC50 [11]: > 79.4 µM (not active)
